Laboratory results as given in patent publication US10399945B2, “Tetrahydronaphthyl urea derivative” (MOCHIDA PHARMACEUTICAL CO., LTD., priority 2017, dated 2019).

Target: Human TrkA Protein (Homo sapiens (Human), UniProt P04629)
Assay: Evaluation of Binding Activity for Human TrkA Protein (TrkA LanthaScreen Eu Kinase Binding Assay)
Details: TrkA enzyme, Kinase Tracer 236, TR-FRET, 60 minutes at room temperature
Description: (Pharmacological Experimental Example 1): Evaluation of Binding Activity for Human TrkA Protein
Measurement was carried out using TrkA LanthaScreen (registered trademark) Eu Kinase Binding Assay (ThermoFisher SCIENTIFIC). To a 384 well plate (Corning), 2.5 μL of the test compound having various concentrations and diluted with Kinase buffer (ThermoFisher SCIENTIFIC) and 2.5 μL of 15 nM TrkA enzyme (ThermoFisher SCIENTIFIC) were added. Moreover, […] Eu-anti-His Tag antibody (ThermoFisher SCIENTIFIC) and 5 μL of 30 nM Kinase (registered trademark) Tracer 236 (ThermoFisher SCIENTIFIC) were added, followed by reaction at room temperature for 60 minutes. After the reaction, the fluorescence intensity of Europium (Emission wavelength 615 nm) and TR-FRET (Emission wavelength 665 nm) with an excitation wavelength of 340 nm were measured with EnVision 2100 (PerkinElmer) to calculate the fluorescence ratio as the amount of the test compound and the TrkA enzyme bonded. The inhibitory activity (IC50 value) of each test compound was calculated with the fluorescence ratio of the well to which a solvent was added instead of the test compound being 0% and the fluorescence ratio of the well without addition of the TrkA protein being 100%.
In Table 1, […] mean Compounds 1 to 62 synthesized in accordance with Examples 1 to 62 described later.

Chain of Human TrkA Protein (P04629 33-796): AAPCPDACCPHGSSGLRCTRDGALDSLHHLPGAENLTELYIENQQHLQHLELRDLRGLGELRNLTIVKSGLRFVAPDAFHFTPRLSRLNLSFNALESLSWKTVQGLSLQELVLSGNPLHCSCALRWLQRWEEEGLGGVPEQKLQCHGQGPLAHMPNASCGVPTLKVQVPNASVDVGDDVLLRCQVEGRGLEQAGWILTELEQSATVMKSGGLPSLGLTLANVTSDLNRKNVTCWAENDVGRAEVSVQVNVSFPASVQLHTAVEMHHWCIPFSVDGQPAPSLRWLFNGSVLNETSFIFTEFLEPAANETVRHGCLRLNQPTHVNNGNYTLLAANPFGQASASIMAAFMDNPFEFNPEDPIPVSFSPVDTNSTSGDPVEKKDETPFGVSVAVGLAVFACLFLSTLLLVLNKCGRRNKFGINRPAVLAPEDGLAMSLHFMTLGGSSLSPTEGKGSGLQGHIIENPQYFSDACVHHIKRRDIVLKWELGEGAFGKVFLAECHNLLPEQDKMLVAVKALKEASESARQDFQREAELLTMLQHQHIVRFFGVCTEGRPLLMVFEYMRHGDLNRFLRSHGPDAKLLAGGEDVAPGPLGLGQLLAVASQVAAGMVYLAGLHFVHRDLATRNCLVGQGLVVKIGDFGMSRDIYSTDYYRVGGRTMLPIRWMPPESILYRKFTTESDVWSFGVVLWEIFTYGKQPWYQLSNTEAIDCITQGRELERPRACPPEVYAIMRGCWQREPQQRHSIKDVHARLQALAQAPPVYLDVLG

Row | SMILES | IC50 [µM]
1 | Cc1nnc(CNC(=O)c2nc(-c3ccccc3)c(NC(=O)N[C@@H]3c4cc(F)c(F)cc4C(C)(C)C[C@H]3O)cc2C)o1 (racemic) [Compound 41a] | ≤ 0.05
2 | Cc1cc(NC(=O)N[C@@H]2c3cc(F)c(F)cc3C(C)(C)C[C@H]2O)c(-c2ccccc2)nc1C(=O)NCC(C)(C)O (racemic) [Compound 42, rac-5-(3-((1R,2R)-6,7-difluoro-2-hydroxy-4,4-dimethyl-1,2,3,4-tetrahydronaphthalen-1-yl)ureido)-N-(2-hydroxy-2-methylpropyl)-3-methyl-6-phenylpicolinamide] | ≤ 0.05
3 | Cc1cc(NC(=O)N[C@@H]2c3cc(F)c(F)cc3C(C)(C)C[C@H]2O)c(-c2ccccc2)nc1CO (racemic) [Compound 43, rac-1-((1R,2R)-6,7-difluoro-2-hydroxy-4,4-dimethyl-1,2,3,4-tetrahydronaphthalen-1-yl)-3-(6-(hydroxymethyl)-5-methyl-2-phenylpyridin-3-yl)urea] | ≤ 0.05
4 | Cc1ncc(-c2nc(-c3ccccc3)c(NC(=O)N[C@@H]3c4cc(F)c(F)cc4C(C)(C)C[C@H]3O)cc2C)cn1 (racemic) [Compound 44, rac-1-((1R,2R)-6,7-difluoro-2-hydroxy-4,4-dimethyl-1,2,3,4-tetrahydronaphthalen-1-yl)-3-(5-methyl-6-(2-methylpyrimidin-5-yl)-2-phenylpyridin-3-yl)urea] | ≤ 0.05
5 | Cc1ncc(-c2nc(-c3ccccc3)c(NC(=O)N[C@@H]3c4cc(F)c(F)cc4C(C)(C)C[C@H]3O)cc2C)cn1 (racemic) [Compound 44a] | ≤ 0.05
6 | Cc1cc(NC(=O)N[C@@H]2c3cc(F)c(F)cc3C(C)(C)C[C@H]2O)c(-c2ccccc2)nc1-c1ccc(CO)cc1 (racemic) [Compound 45, rac-1-((1R,2R)-6,7-difluoro-2-hydroxy-4,4-dimethyl-1,2,3,4-tetrahydronaphthalen-1-yl)-3-(6-(4-(hydroxymethyl)phenyl)-5-methyl-2-phenylpyridin-3-yl)urea] | ≤ 0.05
7 | Cc1cc(NC(=O)N[C@@H]2c3cc(F)c(F)cc3C(C)(C)C[C@H]2O)c(-c2ccccc2)nc1-c1cccc(CO)c1 (racemic) [Compound 46, rac-1-((1R,2R)-6,7-difluoro-2-hydroxy-4,4-dimethyl-1,2,3,4-tetrahydronaphthalen-1-yl)-3-(6-(3-(hydroxymethyl)phenyl)-5-methyl-2-phenylpyridin-3-yl)urea] | ≤ 0.05
8 | Cc1cc(NC(=O)N[C@@H]2c3cc(F)c(F)cc3C(C)(C)C[C@H]2O)c(-c2ccccc2)nc1-c1cccc(C#N)c1 (racemic) [Compound 47, rac-1-(6-(3-cyanophenyl)-5-methyl-2-phenylpyridin-3-yl)-3-((1R,2R)-6,7-difluoro-2-hydroxy-4,4-dimethyl-1,2,3,4-tetrahydronaphthalen-1-yl)urea] | ≤ 0.05
9 | Cc1cc(NC(=O)N[C@@H]2c3cc(F)c(F)cc3C(C)(C)C[C@H]2O)c(-c2ccccc2)nc1-c1ccn(C)n1 (racemic) [Compound 48, rac-1-((1R,2R)-6,7-difluoro-2-hydroxy-4,4-dimethyl-1,2,3,4-tetrahydronaphthalen-1-yl)-3-(5-methyl-6-(1-methyl-1H-pyrazol-3-yl)-2-phenylpyridin-3-yl)urea] | ≤ 0.05
10 | Cc1cc(NC(=O)N[C@@H]2c3cc(F)c(F)cc3C(C)(C)C[C@H]2O)c(-c2ccccc2)nc1-c1ccn(C)n1 (racemic) [Compound 48a] | ≤ 0.05
11 | Cc1cc(-c2nc(-c3ccccc3)c(NC(=O)N[C@@H]3c4cc(F)c(F)cc4C(C)(C)C[C@H]3O)cc2C)cnn1 (racemic) [Compound 49, rac-1-((1R,2R)-6,7-difluoro-2-hydroxy-4,4-dimethyl-1,2,3,4-tetrahydronaphthalen-1-yl)-3-(5-methyl-6-(6-methylpyridazin-4-yl)-2-phenylpyridin-3-yl)urea] | ≤ 0.05
12 | Cc1ncc(-c2nc(-c3ccccc3)c(NC(=O)N[C@@H]3c4cc(F)c(F)cc4C(C)(C)C[C@H]3O)cc2C)s1 (racemic) [Compound 50, rac-1-((1R,2R)-6,7-difluoro-2-hydroxy-4,4-dimethyl-1,2,3,4-tetrahydronaphthalen-1-yl)-3-(5-methyl-6-(2-methylthiazol-5-yl)-2-phenylpyridin-3-yl)urea] | 0.05 to 1
13 | Cc1cc(NC(=O)N[C@@H]2c3cc(F)c(F)cc3C(C)(C)C[C@H]2O)c(-c2ccccc2)nc1-c1cnn(C)c1 (racemic) [Compound 51, rac-1-((1R,2R)-6,7-difluoro-2-hydroxy-4,4-dimethyl-1,2,3,4-tetrahydronaphthalen-1-yl)-3-(5-methyl-6-(1-methyl-1H-pyrazol-4-yl)-2-phenylpyridin-3-yl)urea] | ≤ 0.05
14 | Cc1cc(NC(=O)N[C@@H]2c3cc(F)c(F)cc3C(C)(C)C[C@H]2O)c(-c2ccccc2)nc1-c1ccc(C#N)cc1 (racemic) [Compound 52, rac-1-(6-(4-cyanophenyl)-5-methyl-2-phenylpyridin-3-yl)-3-((1R,2R)-6,7-difluoro-2-hydroxy-4,4-dimethyl-1,2,3,4-tetrahydronaphthalen-1-yl)urea] | ≤ 0.05
15 | Cc1cc(NC(=O)N[C@@H]2c3cc(F)c(F)cc3C(C)(C)C[C@H]2O)c(-c2ccccc2)nc1-c1cn[nH]c1 (racemic) [Compound 53, rac-1-((1R,2R)-6,7-difluoro-2-hydroxy-4,4-dimethyl-1,2,3,4-tetrahydronaphthalen-1-yl)-3-(5-methyl-2-phenyl-6-(1H-pyrazol-4-yl)pyridin-3-yl)urea] | ≤ 0.05
16 | Cc1cc(NC(=O)N[C@@H]2c3cc(F)c(F)cc3C(C)(C)C[C@H]2O)c(-c2ccccc2)nc1-c1cnc(C(C)(C)O)nc1 (racemic) [Compound 54, rac-1-((1R,2R)-6,7-difluoro-2-hydroxy-4,4-dimethyl-1,2,3,4-tetrahydronaphthalen-1-yl)-3-(6-(2-(2-hydroxypropan-2-yl)pyrimidin-5-yl)-5-methyl-2-phenylpyridin-3-yl)urea] | ≤ 0.05
17 | Cc1cc(NC(=O)N[C@@H]2c3cc(F)c(F)cc3C(C)(C)C[C@H]2O)c(-c2ccccc2)nc1-c1ccc(CO)nc1 (racemic) [Compound 55, rac-1-((1R,2R)-6,7-difluoro-2-hydroxy-4,4-dimethyl-1,2,3,4-tetrahydronaphthalen-1-yl)-3-(6′-(hydroxymethyl)-3-methyl-6-phenyl-[2,3′-bipyridin]-5-yl)urea] | ≤ 0.05
18 | Cc1cnc(C2CCOCC2)c(NC(=O)N[C@@H]2c3cc(F)c(F)cc3C(C)(C)C[C@H]2O)c1 (racemic) [Compound 57, rac-1-((1R,2R)-6,7-difluoro-2-hydroxy-4,4-dimethyl-1,2,3,4-tetrahydronaphthalen-1-yl)-3-(5-methyl-2-(tetrahydro-2H-pyran-4-yl)pyridin-3-yl)urea] | 0.05 to 1
19 | Cc1cc(NC(=O)N[C@@H]2c3cc(F)c(F)cc3C(C)(C)C[C@H]2O)c(C2CCOCC2)nc1C(N)=O (racemic) [Compound 58, rac-5-(3-((1R,2R)-6,7-difluoro-2-hydroxy-4,4-dimethyl-1,2,3,4-tetrahydronaphthalen-1-yl)ureido)-3-methyl-6-(tetrahydro-2H-pyran-4-yl)picolinamide] | 0.05 to 1
20 | Cc1ncc(-c2nc(C3CCOCC3)c(NC(=O)N[C@@H]3c4cc(F)c(F)cc4C(C)(C)C[C@H]3O)cc2C)cn1 (racemic) [Compound 59, rac-1-((1R,2R)-6,7-difluoro-2-hydroxy-4,4-dimethyl-1,2,3,4-tetrahydronaphthalen-1-yl)-3-(5-methyl-6-(2-methylpyrimidin-5-yl)-2-(tetrahydro-2H-pyran-4-yl)pyridin-3-yl) urea] | 0.05 to 1
